Measured values: EP1513800B1, “N-BENZOYLUREIDOCINNAMATE DERIVATIVES, METHOD FOR PRODUCTION AND USE THEREOF” (Sanofi-Aventis Deutschland GmbH, priority 2002, dated 2003)

Test system: Humane Glykogenphosphorylase a
Experiment: Glycogen phosphorylase a activity test (reverse direction, release of inorganic phosphate from glucose-1-phosphate)
Assay type: biochemical
Conditions: 10 µM test substance; in vitro; 40 min at room temperature; absorbance at 820 nm; duplicate determinations
Experimental: Glykogenphosphorylase a Aktivitätstest
Der Effekt von Verbindungen auf die Aktivität der aktiven Form der Glykogenphosphorylase (GPa) wurde in der umgekehrten Richtung, durch Verfolgen der Glykogensynthese aus Glukose-1-Phosphat an Hand der Bestimmung der Freisetzung von anorganischem Phosphat, gemessen. […] Prüfsubstanzen wurden als 10 mM Lösung in DMSO zubereitet und auf 50 µM mit Pufferlösung T verdünnt. Zu 10 µl dieser Lösung wurden 10 µl 37,5 mM Glukose, gelöst in Pufferlösung T und 5 mg/mL Glykogen, sowie 10 µl einer Lösung von humaner Glykogenphosphorylase a (10 µg Protein/ml) und 20 µl Glukose-1-Phosphat, 2,5 mM zugegeben. Der basale Wert der Glykogenphosphorylase a Aktivität in Abwesenheit von Prüfsubstanz wurde durch Zugabe von 10 µl Pufferlösung T (0,1 % DMSO) bestimmt. […] Zur Bestimmung der Hintergrundsabsorption wurde in einem separaten Ansatz die Stop-Lösung unmittelbar nach Zugabe der Glukose-1-Phosphatlösung zugegeben. Dieser Test wurde mit einer Konzentrationen von 10 µM der Prüfsubstanz durchgeführt, um die jeweilige Hemmung der Glykogenphosphorylase a in vitro durch die Prüfsubstanz zu bestimmen. Tabelle 2: Biologische Aktivität

| % Inhibition bei 10 µM [%] | SMILES |
| --- | --- |
| 101 | O=C(O)/C=C/c1ccccc1NC(=O)NC(=O)c1cc(F)c(F)cc1Cl [compound 2, 3-{2-[3-(2-Chloro-4,5-difluorobenzoyl)-ureido]-phenyl}-acrylsäure] |
| 104 | COC(=O)C=Cc1cc(C(=O)O)ccc1NC(=O)NC(=O)c1cc(F)c(F)cc1Cl [compound 12, 4-[3-(2-Chloro-4,5-difluorobenzoyl)-ureido]-3-(2-methoxycarbonyl-vinyl)-benzoesäure] |
